Some results are limits rather than exact numbers.

Experiment [1] concerns the target T1, 3-oxo-5-alpha-steroid 4-dehydrogenase 2 (Homo sapiens, UniProt P31213).
T1 sequence (P31213 whole entry): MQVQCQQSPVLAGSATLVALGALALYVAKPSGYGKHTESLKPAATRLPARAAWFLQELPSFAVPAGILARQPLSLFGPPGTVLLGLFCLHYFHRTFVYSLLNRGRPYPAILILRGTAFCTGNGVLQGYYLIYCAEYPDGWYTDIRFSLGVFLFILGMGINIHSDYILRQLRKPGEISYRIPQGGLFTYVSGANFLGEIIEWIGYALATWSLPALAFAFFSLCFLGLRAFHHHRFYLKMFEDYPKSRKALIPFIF
The experiment is described as follows: Compound was tested for the inhibition of Steroid 5-alpha-reductase type 2 of human prostates. In kind it is tissue-based, Prostate gland.

The target in experiment [2] is T2, 3-oxo-5-alpha-steroid 4-dehydrogenase 2 (Homo sapiens) (UniProt P31213).
T2 sequence (whole entry): T1 sequence (P31213 whole entry)
The experiment is described as follows: Compound was tested for the inhibition of Steroid 5-alpha-reductase type 2 of human prostates at a concentration of 10e-6 M. In kind it is tissue-based. To be noted: Prostate gland.

Experiment [3] addresses T1, 3-oxo-5-alpha-steroid 4-dehydrogenase 2. The experiment is described as follows: Compound was tested for the inhibition of type 2 5-alpha-reductase of human prostates. In kind it is tissue-based, Prostate gland.

One may read the IC50 as the concentration that inhibits the measured activity by half. Higher therefore signals weaker potency. For `Cc1cc(C(=O)O)cc(C)c1-c1ccc(OCC(=O)N(C(C)C)C(C)C)cc1`, in experiment [1], the IC50 was over 10000 nM.
The same measure, in the same setting: in the case of `CC(C)N(C(=O)COc1ccc(-c2ccc(C(=O)O)cc2Cl)cc1)C(C)C` it was 870 nM.
For orientation: inhibition means the change of the read-out against control, counted positive when it falls. A high value points to a strong effect. For the compound `CC(C)N(C(=O)c1cc(N)c(-c2ccc(C(=O)O)cc2)c(N)c1)C(C)C`, the inhibition in experiment [2] amounted to 0%.
Same read-out and setting: to `CC(C)N(C(=O)c1cc([N+](=O)[O-])c(-c2ccc(C(=O)O)cc2)c([N+](=O)[O-])c1)C(C)C` belongs 0%.
Same read-out and setting: to `CC(C)N(C(=O)c1cc(Br)c(-c2ccc(C(=O)O)cc2)c(Br)c1)C(C)C` belongs 0%.
Consider `CC(C)N(C(=O)COc1ccc(-c2ccc(C(=O)O)cc2C(F)(F)F)cc1)C(C)C`, for which, in experiment [1], 570 nM corresponded to half-maximal inhibition (IC50).
The same measure, in the same setting: to `CC(C)N(C(=O)COc1cc(Cl)c(-c2ccc(C(=O)O)cc2)c(Cl)c1)C(C)C` belongs over 10000 nM.
In the case of `CC(C)N(C(=O)c1cc(I)c(-c2ccc(C(=O)O)cc2)c([N+](=O)[O-])c1)C(C)C`, the inhibition in experiment [2] amounted to 0%.
`O=C(COc1c(F)cc(-c2ccc(C(=O)O)cc2)cc1[N+](=O)[O-])NC(c1ccccc1)(c1ccccc1)c1ccccc1`: inhibition in experiment [3] was half-maximal at 92 nM (IC50).
Same read-out and setting: in the case of `CCc1cc(-c2ccc(C(=O)O)cc2)ccc1OCC(=O)N(C(C)C)C(C)C` it was 350 nM.
For the compound `CC(C)N(C(=O)Cc1ccc(-c2ccc(C(=O)O)cc2)cc1)C(C)C`, the inhibition in experiment [2] was 37%.
In turn, `CC(C)N(C(=O)[C@H]1CC[C@H]2[C@@H]3CCc4cc(C(=O)O)ccc4[C@H]3CC[C@]12C)C(C)C` gave an IC50 in experiment [3] of 2.1 nM.
With `CC(C)N(C(=O)COc1ccc(-c2c(Cl)cc(C(=O)O)cc2Cl)cc1)C(C)C`, the IC50 in experiment [1] was over 10000 nM.
`CC(C(=O)N(C(C)C)C(C)C)c1ccc(-c2ccc(C(=O)O)cc2)cc1` (stereo not drawn) registered an inhibition in experiment [2] of 26.9%.
The same measure, in the same setting: to `CC(C)N(C(=O)c1cc(I)c(-c2ccc(C(=O)O)cc2)c(I)c1)C(C)C` belongs 0%.
As for `CC(C)N(C(=O)COc1ccc(-c2ccc(C(=O)O)cc2)cc1)C(C)C`, the inhibition in experiment [2] is 57.5%. Moreover, the midpoint of inhibition in experiment [1], the IC50, lay at 830 nM.
`CC(C)N(C(=O)COc1c(F)cc(-c2ccc(C(=O)O)cc2)cc1[N+](=O)[O-])C(C)C` showed an IC50 in experiment [3] of 9.8 nM.
In experiment [2], `CC(C)N(C(=O)c1ccc(-c2ccc(C(=O)O)cc2)cc1)C(C)C` had an inhibition of 32.5%.
Take `CC(C)N(C(=O)[C@H]1CCC2C3CC[C@H]4NC(=O)CC[C@]4(C)C3CC[C@@]21C)C(C)C` (stereo partly drawn): in experiment [3], the IC50 amounted to 41 nM.
Same read-out and setting: in the case of `CCc1cc(OCC(=O)N(C(C)C)C(C)C)ccc1-c1ccc(C(=O)O)cc1` it was 2000 nM.
`CC(C)N(C(=O)COc1ccc(-c2c(F)cc(C(=O)O)cc2F)cc1)C(C)C` displayed an IC50 in experiment [1] of over 10000 nM.
As to `CC(C)c1cc(-c2ccc(C(=O)O)cc2)cc(C(C)C)c1OCC(=O)N(C(C)C)C(C)C`, the IC50 in experiment [1] amounted to 71 nM.
